Our source for the IC50 values is patent US20260209214A1, “LSD1 MODULATORS” (RECURSION PHARMACEUTICALS, INC., priority 2022, published 2026).

The target in the assay is Recombinant human LSD1 (Homo sapiens, UniProt O60341). Description: LSD1 inhibition assay (HTRF LSD1 Histone H3K4 mono-demethylation assay, me1->me0). Format: biochemical. The note with it: 20 nM recombinant human LSD1, 95 nM H3K4(me1) biotinylated peptide, 15 min preincubation, 60 min at 25° C., read-out: LSD1 inhibition IC50 (nM range). Here is the method: LSD1 biochemical activity was measured using the HTRF® LSD1 Histone H3K4 mono-demethylation assay (me1->me0). Briefly, the enzymatic buffer was prepared by addition of 50 mM Tris-HCl (Sigma cat #T2663-IL), 50 mM NaCl (ThermoFisher cat #AM9759) and 0.01% Tween 20 (ThermoFisher cat #J20605.AP) in distilled water (final pH 8.5). This buffer was supplemented with 10 μM FAD (Fisher Scientific cat #11411838) and 1 mM DTT (Sigma cat #D0632). For the assay, H3K4(me1) biotinylated peptide substrate (Anaspec, cat #64355) was added to provide a final assay concentration of 95 nM. The streptavidin-XL665 (Cisbio cat #610SAXLA) and H3K4 me0-Eu(K) antibody-cryptate (Cisbio, cat #61 KAOKAD) detection reagents were mixed according to the manufacturer's instructions. Test compounds were diluted in DMSO in a series of 10 semi-log step doses; 10 nL of each compound dose were dispensed in 384 well plates. Recombinant human LSD1 was diluted into enzymatic buffer to provide a final assay concentration of 20 nM and added to the tested compounds for 15 minutes. The reaction was started by addition of the substrate and incubated at 25° C. for 60 minutes. The detection reagents were added, and the plate was incubated in the dark for 90 minutes. Fluorescence was measured on an Envision 2103 plate reader with optical setup for […] in the HTRF mode. The ratio of acceptor and donor emission signals was calculated for each well. Percent inhibition values were calculated from the HTRF ratios at different doses and fitted to a 4-parameter logistic curve to determine IC50 values. […]

Where only a bound is given, the exact number is not on record here.

In the case of `C[C@@]1(O)C[C@H]2CN(c3ccc(CC4CNCCO4)cc3-c3ccc(C#N)c(F)c3)C[C@H]2C1` (mixture of isomers) [Example 114, 2′-[(3aR,5S,6aS)-5-hydroxy-5-methyl-octahydrocyclopenta[c]pyrrol-2-yl]-3-fluoro-5′-[(morpholin-2-yl)methyl]-[1,1′-biphenyl]-4-carbonitrile], the IC50 is 100 to 1000 nM.

For the molecule `N#Cc1ccc(-c2cccc(CN3[C@@H]4CC[C@H]3[C@@H](N)C4)c2-c2ccns2)cc1` (racemic) [Example 170, 3'-{[(1S,2S,4R)-2-amino-7-azabicyclo[2.2.1]heptan-7-yl]methyl}-2'-(1,2-thiazol-5-yl)-[1,1'-biphenyl]-4-carbonitrile], the IC50 was 10 to 25 nM.

With `CN[C@H]1C[C@H]2CC[C@@H]1N2Cc1cccc(-c2ccc(C#N)c(F)c2)c1C1CC1` (racemic) [Example 175], the IC50 lay in the range of 10 to 25 nM.

As for `N#Cc1ccc(-c2cccc(CN3[C@@H]4CC[C@H]3[C@@H](N)C4)c2C2CC2)cc1F` (racemic) [Example 176, 3'-{[(1S,2S,4R)-2-amino-7-azabicyclo[2.2.1]heptan-7-yl]methyl}-2'-cyclopropyl-3-fluoro-[1,1'-biphenyl]-4-carbonitrile], the IC50 lay within 25 to 100 nM.

On to `N#Cc1ccc(-c2cccc(CN3[C@@H]4CC[C@H]3[C@@H](N)C4)c2OC(F)F)cc1F` (racemic) [Example 179, 3'-{[(1S,2S,4R)-2-amino-7-azabicyclo[2.2.1]heptan-7-yl]methyl}-2'-(difluoromethoxy)-3-fluoro-[1,1'-biphenyl]-4-carbonitrile], for which the IC50 was in the range of 10 to 25 nM.

In the case of `COc1c(CN2[C@@H]3CC[C@H]2[C@@H](N)C3)cccc1-c1ccc(C#N)c(F)c1` (racemic) [Example 180, 3'-{[(1S,2S,4R)-2-amino-7-azabicyclo[2.2.1]heptan-7-yl]methyl}-3-fluoro-2'-methoxy-[1,1'-biphenyl]-4-carbonitrile], the IC50 fell in the range of 25 to 100 nM.

Turning to `N#Cc1ccc(-c2ccc(F)c(CN3[C@@H]4CC[C@H]3[C@@H](N)C4)c2C2CC2)cc1F` (racemic) [Example 181, N[C@@H]1C[C@@H]2CC[C@H]1N2Cc3c(F)ccc(c4ccc(C#N)c(F)c4)c3C5CC5], the IC50 lay in the range of 10 to 25 nM.

`N#Cc1ccc(-c2cccc(CN3[C@@H]4CC[C@H]3[C@@H](N)C4)c2C2CC2)cc1` (racemic) [Example 191, 3'-{[(1S,2S,4R)-2-amino-7-azabicyclo[2.2.1]heptan-7-yl]methyl}-2'-cyclopropyl-[1,1'-biphenyl]-4-carbonitrile]: the IC50 was 25 to 100 nM.

Take `N#Cc1ccc(-c2cccc(CN3[C@@H]4CC[C@H]3[C@@H](N)C4)c2C(F)(F)F)cc1F` (racemic) [Example 200, 3'-{[(1S,2S,4R)-2-amino-7-azabicyclo[2.2.1]heptan-7-yl]methyl}-3-fluoro-2'-(trifluoromethyl)-[1,1'-biphenyl]-4-carbonitrile]: the IC50 is 25 to 100 nM.

On to `N#Cc1ccc(-c2cccc(CN3[C@@H]4CC[C@H]3[C@@H](N)C4)c2N2CCC2)cc1F` (racemic) [Example 203, 3'-{[(1S,2S,4R)-2-amino-7-azabicyclo[2.2.1]heptan-7-yl]methyl}-2'-(azetidin-1-yl)-3-fluoro-[1,1'-biphenyl]-4-carbonitrile], for which the IC50 was in the range of 25 to 100 nM.

Take `CC1(C)CN(c2ccc(CN3[C@@H]4CC[C@H]3[C@@H](N)C4)cc2-c2ccc(C#N)c(F)c2)C1` (racemic) [Example 206, 5'-{[(1S,2S,4R)-2-amino-7-azabicyclo[2.2.1]heptan-7-yl]methyl}-2'-(3,3-dimethylazetidin-1-yl)-3-fluoro-[1,1'-biphenyl]-4-carbonitrile]: the IC50 lay in the range of 10 to 25 nM.

With `N#Cc1ccc(-c2ccc(F)c(CN3[C@@H]4CC[C@H]3[C@@H](N)C4)c2-c2ccns2)cc1F` (racemic) [Example 207, 3'-{[(1S,2S,4R)-2-amino-7-azabicyclo[2.2.1]heptan-7-yl]methyl}-3,4'-difluoro-2'-(1,2-thiazol-5-yl)-[1,1'-biphenyl]-4-carbonitrile], the IC50 was below 10 nM.

As for `COCC1CCN(c2ccc(CN3[C@@H]4CC[C@H]3[C@@H](N)C4)cc2-c2ccc(C#N)c(F)c2)CC1` (racemic) [Example 209, 5'-{[(1S,2S,4R)-2-amino-7-azabicyclo[2.2.1]heptan-7-yl]methyl}-3-fluoro-2'-[4-(methoxymethyl)piperidin-1-yl]-[1,1'-biphenyl]-4-carbonitrile], the IC50 is 10 to 25 nM.

As to `CC(C)Oc1c(CN2[C@@H]3CC[C@H]2[C@@H](N)C3)cccc1-c1ccc(C#N)c(F)c1` (racemic) [Example 213], the IC50 lay in the range of 25 to 100 nM.

Consider `N#Cc1ccc(-c2cccc(CN3[C@@H]4CC[C@H]3[C@@H](N)C4)c2C2CCC2)cc1F` (racemic) [Example 218, 3'-{[(1S,2S,4R)-2-amino-7-azabicyclo[2.2.1]heptan-7-yl]methyl}-2'-cyclobutyl-3-fluoro-[1,1'-biphenyl]-4-carbonitrile], for which the IC50 was in the range of 10 to 25 nM.

`CC(C)c1c(CN2[C@@H]3CC[C@H]2[C@@H](N)C3)cccc1-c1ccc(C#N)c(F)c1` (racemic) [Example 220, 3'-{[(1S,2S,4R)-2-amino-7-azabicyclo[2.2.1]heptan-7-yl]methyl}-3-fluoro-2'-(propan-2-yl)-[1,1'-biphenyl]-4-carbonitrile]: the IC50 lay within 25 to 100 nM.

On to `COc1ccc(-c2ccc(CN3[C@@H]4CC[C@H]3[C@@H](N)C4)cc2-c2ccc(C#N)c(F)c2)cc1F` (racemic) [Example 222, 4-(4-{[(1S,2S,4R)-2-amino-7-azabicyclo[2.2.1]heptan-7-yl]methyl}-3'-fluoro-4'-methoxy-[1,1'-biphenyl]-2-yl)-2-fluorobenzonitrile], for which the IC50 lay in the range of 10 to 25 nM.

With `N#Cc1ccc(-c2cc(CN3[C@@H]4CC[C@H]3[C@@H](N)C4)ccc2N2CCC3(CCCO3)CC2)cc1F` (racemic) [Example 224, 5'-{[(1S,2S,4R)-2-amino-7-azabicyclo[2.2.1]heptan-7-yl]methyl}-3-fluoro-2'-{1-oxa-8-azaspiro [4.5]decan-8-yl}-[1,1'-biphenyl]-4-carbonitrile], the IC50 was 10 to 25 nM.

Turning to `C[C@]1(N)C[C@H]2CC[C@@H]1N2Cc1cccc(-c2ccc(C#N)c(F)c2)c1C1CC1` (racemic) [Example 229, 3'-{[(1S,2S,4R)-2-amino-2-methyl-7-azabicyclo[2.2.1]heptan-7-yl]methyl}-2'-cyclopropyl-3-fluoro-[1,1'-biphenyl]-4-carbonitrile], the IC50 lay within 25 to 100 nM.

Consider `COc1ccc(-c2ccc(CN3[C@@H]4CC[C@H]3[C@@H](N)C4)cc2-c2ccc(C#N)c(F)c2)cn1` (racemic) [Example 230, 5'-{[(1S,2S,4R)-2-amino-7-azabicyclo[2.2.1]heptan-7-yl]methyl}-3-fluoro-2'-(6-methoxypyridin-3-yl)-[1,1'-biphenyl]-4-carbonitrile], for which the IC50 is 10 to 25 nM.

As for `N#Cc1ccc(-c2cc(CN3[C@@H]4CC[C@H]3[C@@H](N)C4)ccc2OC[C@@H]2CCCOC2)cc1F` (racemic) [Example 231, 5'-{[(1S,2S,4R)-2-amino-7-azabicyclo[2.2.1]heptan-7-yl]methyl}-3-fluoro-2'-{[(3R)-oxan-3-yl]methoxy}-[1,1'-biphenyl]-4-carbonitrile], the IC50 was in the range of 10 to 25 nM.

As for `COC1(C)CCN(c2ccc(CN3[C@@H]4CC[C@H]3[C@@H](N)C4)cc2-c2ccc(C#N)c(F)c2)CC1` (racemic) [Example 232, 5'-{[(1S,2S,4R)-2-amino-7-azabicyclo[2.2.1]heptan-7-yl]methyl}-3-fluoro-2'-(4-methoxy-4-methylpiperidin-1-yl)-[1,1'-biphenyl]-4-carbonitrile], the IC50 is 10 to 25 nM.

On to `N#Cc1ccc(-c2cc(CN3[C@@H]4CC[C@H]3[C@@H](N)C4)ccc2N2CCC(CF)CC2)cc1F` (racemic) [Example 235, 5'-{[(1S,2S,4R)-2-amino-7-azabicyclo[2.2.1]heptan-7-yl]methyl}-3-fluoro-2'-[4-(fluoromethyl)piperidin-1-yl]-[1,1'-biphenyl]-4-carbonitrile], for which the IC50 is 10 to 25 nM.

Turning to `N#Cc1ccc(-c2cccc(CN3[C@@H]4CC[C@H]3[C@@H](N)C4)c2N2CCC(F)CC2)cc1F` (racemic) [Example 241, 3'-{[(1S,2S,4R)-2-amino-7-azabicyclo[2.2.1]heptan-7-yl]methyl}-3-fluoro-2'-(4-fluoropiperidin-1-yl)-[1,1'-biphenyl]-4-carbonitrile], the IC50 fell in the range of 100 to 1000 nM.

Take `N#Cc1ccc(-c2cccc(CN3[C@@H]4CC[C@H]3[C@@H](N)C4)c2-c2cccs2)cc1F` (racemic) [Example 243, 3'-{[(1S,2S,4R)-2-amino-7-azabicyclo[2.2.1]heptan-7-yl]methyl}-3-fluoro-2'-(thiophen-2-yl)-[1,1'-biphenyl]-4-carbonitrile]: the IC50 was in the range of 25 to 100 nM.
